{
  "source": "ChEMBL document CHEMBL5550106",
  "about": "“Recent advances in the exploration of oxazolidinone scaffolds from compound development to antibacterial agents and other bioactivities” (Eur J Med Chem, 2024)",
  "system": "Mycobacterium tuberculosis",
  "assay": "Antitubercular activity against Multi-drug resistant Mycobacterium tuberculosis assessed as inhibition of bacterial growth incubated for 14 days by microplate alamar blue assay",
  "format": "functional",
  "conditions": "336 h, time 14 day",
  "data": [
    {"smiles": "CN1CCN(c2ccc(N3C[C@H](CO)OC3=O)cc2F)C=N1", "note": "[DELPAZOLID]", "values": [
      {"measurement": "MIC90", "result": 0.5, "unit": "µg/mL"}
    ]}
  ]
}
